Values belong to the compound of their own block, whether it stands above or below them.
Experiments:
[1] = Cholesterol crystal mass in model bile
Experimental: (§1) EYL, cholesterol and Na-TC mixtures were dissolved in CHCl3/CH3OH (2:1 v/v), dried under N2 at room temperature, lyophilized overnight and kept at −20°C. under argon until used. Model bile solutions were prepared by suspending the dried lipids in 150 mM NaCl, 1.5 mM disodium EDTA, 50 mM Tris-HCl pH 8.0 and incubating the suspension at 55° C. for 1 hour. The solubilized model biles were incubated, in sealed vials under argon, at 37° C. for the duration of the experiment. Aliquots from the models were examined daily.
Chemical analyses of cholesterol were performed on each sample on the last day of the experiment (day 14), as previously described (G. J. Somjen see above). The samples were collected from the micro wells, centrifuged in an Airfuge (Beckman) at 70,000 rpm for 5 min. Separate determinations were performed on the total sample (before centrifugation) as well as on the supernatant solution. The amount of cholesterol in the precipitated pellets was calculated by subtracting the amounts in the supernatant solutions from the total. […] The crystal mass was also measured spectrophotometrically as the OD difference between day 0 and day 14 of the incubation.
Cholesterol 15 mM, EYL […]. […]
All samples were incubated at 37° C. for 100 hrs. The difference in the optical density between 100 hrs. and 0 hrs.

[2] = Oral PalC in hamsters, TLC of gallbladder bile; type: in vivo; details: per os 10-15 mg/animal/day
Experimental: Male, 6-7 weeks old hamsters weighing 79-83 g were maintained in an animal house with ad libidum access to water and chow.
Test hamsters were given per os by a special syringe 10-15 mg/animal/day of PalC dissolved in 1 ml of saline. Control animals were given an equivalent volume of saline alone. […] On the second day 4 hours after the application of the PalC in saline to the respective animals they were killed by an overdose of chloroform vapors. The abdomens were opened, the bile ducts were tied up, the gallbladders were excised and rinsed twice in saline. They were then placed on the top of conical plastic tubes and incised. The bile was collected at the bottom of the tubes.
Bile samples were centrifuged (Eppendorf centrifuge) for 5 min. at 2000 rpm. Debris was discarded and the supernatant was extracted according to the Folch procedure (chloroform: methanol 2:1). After partition with water, the lipid phase was analyzed by thin layer chromatography on silica gel 60 thin layer plates (Merck). The eluent was dichloromethane:methanol:acetic acid (100:5:1, v:v:v). Samples were compared with a true standard, Reference front (Rf) about 0.2 after development with I2 vapors.

[3] = Crystal observation time (nucleation time) assay in model bile; details: for effect on nucleation time versus control solution: 20% of NaTC replaced by the specific conjugate
Experimental: Aliquots from each model bile were examined daily by polarized light microscopy. COT was defined as the initial time of detection of at least three cholesterol monohydrate crystals per microscopic field at 100 fold magnification.
Cholesterol 15 mM, EYL 30 ml, NaTC 150 mL. […] In the test solutions 20 mole percent of NaTC was replaced by an equimolar amount of each specific fatty acid/bile acid conjugate tested.

[4] = Crystal growth rate (CGR) assay in model bile
Experimental: as §1
Crystal growth was monitored spectrophotometrically using a microplate reader (SPECTRA-STL, Austria) (G. J. Somjen, et al., J. Lipid Res., 38, […] 1048-1052). Aliquots (50 μl) of lipid solutions were mixed and shaken vigorously with equivalent volumes of Na-taurodeoxycholate (200 mM), in microplate wells. After 60 minutes at room temperature, the microplates were shaken again and the absorbance, at 405 nm, in each well was measured. Each model was prepared in triplicate and sampled in duplicate for measurement.
The data were collected and analyzed by an IBM compatible personal computer, and the optical density (OD), averaged for triplicate preparations, was calculated. A graph describing the averaged OD changes for each solution was plotted. The slope in the steepest region of the curve was determined by a linear regression fit to at least three measurements and defined as the CGR. CGR and OD differences between day 0 and day 14 were calculated for each model.

[5] = Cholesterol crystal appearance in pooled native human gallbladder bile; details: 10 mM test compound; 37° C.; incubation period of 21 days; control bile showed crystals from day 2
Experimental: Native human gallbladder bile was obtained from cholesterol gallstone patients at cholecystectomy. Pooled bile from several patients was cholesterol enriched by incubation with dried cholesterol or by mixing with a concentrated model bile prior to use in experiments in order to facilitate crystallization.
When the test compound (at a concentration of 10 mM) was incubated with pooled native human gallbladder bile from patients with cholesterol gallstones, the results were as follows:
In the native human bile, from which cholesterol crystals were removed by prior ultracentrifugation for 2 hours, new cholesterol crystals were observed from day 2 of incubation (at 37° C.). Crystal numbers increased progressively reaching a peak of more than 150 crystals per microscopic field on day 14.

[6] = fed regularly to humans; cited from earlier work
[7] = 10% of NaTC replaced by PalC (B)
[8] = 20% of Na taurocholate replaced by test compound, vs control model bile
[9] = test compound added to whole model bile at 20% of bile salts (F)

behaviour of animals in the course of treatment [2]: behaved normally | presence in gallbladder bile by TLC (absorbed and excreted into bile) ([2]; bile taken on second day 4 hours after application): presence of PalC in the bile
Structure (SMILES): CCCCCCCCCCCCCCCC(=O)N[C@H]1CC[C@@]2(C)[C@@H](C1)C[C@@H](O)[C@@H]1[C@@H]2C[C@H](O)[C@]2(C)[C@@H]([C@H](C)CCC(=O)O)CC[C@@H]12 [PalC, 3β-Palmitylamido-7α,12α-dihydroxy-5β-cholan-24-oic Acid]
cholesterol mass on day 14 reduced by [1, 7]: 17% | total cholesterol crystal mass reduced by ([1]; 20% of Na taurocholate replaced by test compound, 14 days of incubation): 53% | total crystal mass reduced by ([1]; test compound added to whole model bile at 20% of bile salts (F), 14 days of incubation): 51% | nucleation time (crystal observation time) prolonged by [3, 8]: 167% | effect on nucleation time versus control solution [3]: prolongation of the nucleation time | nucleation time (crystal observation time) prolonged by [3, 9]: 200% | crystal growth rate reduced by [4, 7]: 70% | cholesterol crystal growth rate reduced by ([4]; 20% of Na taurocholate replaced by test compound): 67% | cholesterol crystal growth rate reduced by [4, 9]: 59% | new cholesterol crystals during incubation [5]: no cholesterol crystals were seen

Structure (SMILES): CCCCCCCCCCCCCCCCCC(=O)N[C@H]1CC[C@@]2(C)[C@@H](C1)C[C@@H](NC(=O)CCCCCCCCCCCCCCCCC)[C@@H]1[C@@H]2CC[C@]2(C)[C@@H]([C@H](C)CCC(=O)O)CC[C@@H]12 [distearoyl ursodeoxycholate, 3β,7α-Distearylamido-5β-ursodeoxycholan-24-oic Acid]
retardation of cholesterol crystallization (nucleation time) versus control model bile and equimolar cholic acid ([3]; 20 mole % of NaTC replaced, 37° C.): particularly effective

Structure (SMILES): CCCCCCCCCCCCCCCCCCCC(=O)N[C@H]1CC[C@@]2(C)[C@@H](C1)C[C@@H](O)[C@@H]1[C@@H]2C[C@H](O)[C@]2(C)[C@@H]([C@H](C)CCC(=O)O)CC[C@@H]12 [C20 conjugate, 3β-Arachidylamido-7α,12α-dihydroxy-5β-cholan-24-oic Acid]
final cholesterol crystal mass, % of the control ([1]; 20 mole percent of NaTC replaced, 14 days of incubation): 38% | nucleation time (crystal observation time) prolonged by [3, 8]: more than 360% | effect on nucleation time versus control solution [3]: prolongation of the nucleation time

Structure (SMILES): C[C@H](CCC(=O)O)[C@H]1CC[C@H]2[C@@H]3[C@@H](O)C[C@@H]4C[C@H](O)CC[C@]4(C)[C@H]3CC[C@]12C [ursodeoxycholic acid]
share of biliary bile acids [6]: 30-50%

Structure (SMILES): CCCCCCCCCCCCCC(=O)N[C@H]1CC[C@@]2(C)[C@@H](C1)C[C@@H](O)[C@@H]1[C@@H]2C[C@H](O)[C@]2(C)[C@@H]([C@H](C)CCC(=O)O)CC[C@@H]12 [Example C14, 3β-Myristylamido-7α,12α-dihydroxy-5β-cholan-24-oic Acid]
effect on nucleation time versus control solution [3]: did not prolong the nucleation time
